Active and inactive are the calls of the source. Rule as the data show it, for most assays here: actives have a measured EC50 and inactives only a lower limit.
Tests used:
[1] = system: Streptococcus sp. 'group A'; test: Streptococcus pyogenes SK(-)GAS viability under kanamycin – luminescence, BacTiterGlo, confirmation, counter-screen for streptokinase expression inhibitor project, dose response (AID 1900); format: functional, organism-based
Streptococcus = test: GAS UMAA2166 growth inhibition – luminescence, BacTiterGlo, counter-screen for streptokinase expression inhibitor project, dose response (AID 1915); format: functional, organism-based;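 also: potency for reduction of bacterial viability or growth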
NS3 = NS3 (Hepatitis C virus, UniProt A3EZJ3); test: PubChem AID 2173; set-up: species or system Hepacivirus hominis
NS3, sequence (A3EZJ3 whole entry): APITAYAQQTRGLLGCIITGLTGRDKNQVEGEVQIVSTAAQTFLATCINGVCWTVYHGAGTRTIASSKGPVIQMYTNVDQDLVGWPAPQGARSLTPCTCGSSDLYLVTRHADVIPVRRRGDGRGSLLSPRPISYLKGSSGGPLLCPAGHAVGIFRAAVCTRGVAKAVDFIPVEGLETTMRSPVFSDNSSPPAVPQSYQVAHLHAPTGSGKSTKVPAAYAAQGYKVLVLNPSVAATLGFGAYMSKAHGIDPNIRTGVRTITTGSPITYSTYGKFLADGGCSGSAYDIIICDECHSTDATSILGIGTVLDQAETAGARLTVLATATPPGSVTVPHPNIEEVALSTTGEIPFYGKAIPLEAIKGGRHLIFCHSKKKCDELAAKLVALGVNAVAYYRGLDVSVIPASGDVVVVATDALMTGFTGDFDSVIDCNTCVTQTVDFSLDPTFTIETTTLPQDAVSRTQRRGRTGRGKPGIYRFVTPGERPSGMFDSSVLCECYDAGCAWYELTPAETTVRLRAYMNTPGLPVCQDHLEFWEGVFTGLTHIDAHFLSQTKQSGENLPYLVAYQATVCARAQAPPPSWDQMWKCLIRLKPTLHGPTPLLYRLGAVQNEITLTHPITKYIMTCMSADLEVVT

[2] = target: Heat shock protein HSP 90-alpha (Homo sapiens, UniProt P07900); format: functional, organism-based
[3] = fluconazole-exposed Candida albicans growth modulators – fluorescence, retest, confirmation (AID 2467); format: functional, cell-based
Streptokinase A = target: T1, Streptokinase A (Streptococcus pyogenes serotype M1, UniProt P10520); test: viability-normalized secreted streptokinase activity reduction – plasminogen activation absorbance, OD405, dose response (AID 1914); format: functional, Streptococcus pyogenes M1 GAS;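 also: secreted streptokinase activity via plasminogen activation per viability signal from cell pellet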
T1 sequence (P10520 whole entry): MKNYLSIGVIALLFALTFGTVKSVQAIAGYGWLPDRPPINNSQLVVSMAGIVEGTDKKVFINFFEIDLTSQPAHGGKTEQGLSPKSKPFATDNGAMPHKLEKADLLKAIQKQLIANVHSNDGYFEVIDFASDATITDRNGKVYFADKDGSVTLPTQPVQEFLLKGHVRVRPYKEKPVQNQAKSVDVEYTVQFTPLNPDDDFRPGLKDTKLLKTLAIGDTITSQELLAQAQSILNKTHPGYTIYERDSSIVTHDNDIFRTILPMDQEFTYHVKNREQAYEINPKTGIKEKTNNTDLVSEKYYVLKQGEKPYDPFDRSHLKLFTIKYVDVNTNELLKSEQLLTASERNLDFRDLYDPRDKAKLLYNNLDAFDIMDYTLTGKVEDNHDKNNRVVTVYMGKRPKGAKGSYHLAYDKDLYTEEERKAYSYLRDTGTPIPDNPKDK

[4] = Trypanosoma cruzi growth suppression in host cells – NIH3T3 host cells, beta-gal luminescence, confirmation (AID 2044); format: functional, cell-based;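 also: intracellular parasites grown in NIH/3T3 mouse fibroblasts as host cells; luminescent beta-galactosidase reporter signal from transgenic T. cruzi replicating inside host cells; inhibitors lower the luminescence signal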
[5] = target: T2, Serine/threonine-protein phosphatase (Candida dubliniensis (strain CD36 / CBS 7987 / NCPF 3949 / NRRLY-17841) (Yeast), UniProt B9W6M3); test: blockers of CaCl2-induced CDRE-lacZ signaling – S. cerevisiae, luminescence, secondary, dose response (AID 2388); format: functional, cell-based;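 also: yeast reporter cells carrying a calcineurin-responsive lacZ construct stimulated with calcium chloride; luminescent beta-galactosidase reporter signal in whole cells rather than isolated phosphatase activity; potency for inhibition where a drop in reporter signal means calcineurin blockade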
T2 sequence (B9W6M3 whole entry): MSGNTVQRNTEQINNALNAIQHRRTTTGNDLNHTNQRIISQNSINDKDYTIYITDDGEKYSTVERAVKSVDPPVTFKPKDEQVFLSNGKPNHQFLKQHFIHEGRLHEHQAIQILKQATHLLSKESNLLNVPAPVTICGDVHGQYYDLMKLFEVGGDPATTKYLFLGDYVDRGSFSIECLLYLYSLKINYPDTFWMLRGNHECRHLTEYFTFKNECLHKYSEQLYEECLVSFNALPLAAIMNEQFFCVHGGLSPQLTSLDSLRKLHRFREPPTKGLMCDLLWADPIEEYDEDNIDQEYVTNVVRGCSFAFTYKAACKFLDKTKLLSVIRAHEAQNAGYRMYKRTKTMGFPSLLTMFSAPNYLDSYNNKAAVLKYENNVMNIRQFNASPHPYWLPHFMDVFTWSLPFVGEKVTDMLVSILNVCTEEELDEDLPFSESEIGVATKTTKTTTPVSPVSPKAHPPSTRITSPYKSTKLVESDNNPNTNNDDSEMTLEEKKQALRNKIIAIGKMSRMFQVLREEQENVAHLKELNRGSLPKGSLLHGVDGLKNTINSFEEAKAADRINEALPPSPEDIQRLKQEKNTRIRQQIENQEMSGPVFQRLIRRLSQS

[6] = target: T2, Serine/threonine-protein phosphatase; test: Fluorescence Cell-Based Secondary Assay to Identify Inhibitors of Calcineurin. [Related pubchem assays (depositor defined):AID1979, AID2007]; format: functional
[7] = NIH3T3 cell viability loss – ATP luminescence, mouse fibroblasts, counter-screen, dose response (AID 2010); format: functional, cell-based;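 also: cells exposed to compound for about 90 hours before reading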
BJ [8] = test: BJ-TERT fibroblast viability loss – cell-based, RAS-independent, luminescence, dose response (AID 1933); format: functional; conditions: Homo sapiens
[9] = target: T3, Heat shock factor protein 1 (Mus musculus, UniProt P38532); test: enhancement of HSF1-driven luciferase signal – cell-based, NIH3T3, luminescence, dose retest, confirmation (AID 435004); format: functional;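 also: stress induced by proteasome inhibitor MG132 added 30 min after compound; luciferase reporter driven by HSF1 response element in NIH3T3 cells; actives raise luminescence as potentiators of the MG132 stress response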
T3 sequence (P38532 whole entry): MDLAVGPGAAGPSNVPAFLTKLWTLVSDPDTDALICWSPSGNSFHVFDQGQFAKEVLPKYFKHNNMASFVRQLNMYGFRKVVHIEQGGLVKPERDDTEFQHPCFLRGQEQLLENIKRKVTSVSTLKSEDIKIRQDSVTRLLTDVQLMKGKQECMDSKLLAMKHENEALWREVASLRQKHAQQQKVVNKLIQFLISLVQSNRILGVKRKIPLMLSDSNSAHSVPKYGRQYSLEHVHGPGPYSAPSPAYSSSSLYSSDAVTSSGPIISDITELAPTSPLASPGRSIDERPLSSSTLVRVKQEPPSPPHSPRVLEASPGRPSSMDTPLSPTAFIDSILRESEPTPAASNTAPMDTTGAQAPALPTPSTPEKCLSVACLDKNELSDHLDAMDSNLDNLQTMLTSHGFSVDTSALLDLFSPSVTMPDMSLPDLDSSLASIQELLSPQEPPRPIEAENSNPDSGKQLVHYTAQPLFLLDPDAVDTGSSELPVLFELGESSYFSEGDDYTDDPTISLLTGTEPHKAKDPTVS

BJ [10] = test: cells; format: functional, cell-based; conditions: Homo sapiens
[11] = DRD fibroblast viability loss – cell-based, non-viral oncogenic, luminescence, dose response (AID 1934); format: functional; conditions: Homo sapiens
[12] = NIH-3T3 fibroblast cytotoxicity, dose response, cytotoxicity control, cell-based, fluorescence, Alamar Blue, secondary assay (AID 2327); format: functional;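 also: NIH-3T3 mouse fibroblasts cultured with fluconazole at 8 µg/mL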
BJ [13] = test: BJ-TERT-LT-ST fibroblast viability loss – cell-based, RAS-independent, luminescence, dose response (AID 1935); format: functional; conditions: Homo sapiens;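 also: BJ fibroblasts immortalized with TERT plus LT and ST oncogenes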
[14] = target: ATP-dependent molecular chaperone HSP82 (Candida albicans (strain WO-1) (Yeast), UniProt C4YTQ8); test: steroid-induced GRE reporter decrease in yeast – S. cerevisiae, luminescence, Hsp90 inhibitor project, dose response (AID 2400); format: functional, cell-based;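 also: beta-galactosidase luminescence from glucocorticoid response element reporter as proxy for Hsp90 function; inhibitor potency where signal loss means Hsp90 inhibition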
ATP-dependent molecular chaperone HSP82, sequence (C4YTQ8 whole entry): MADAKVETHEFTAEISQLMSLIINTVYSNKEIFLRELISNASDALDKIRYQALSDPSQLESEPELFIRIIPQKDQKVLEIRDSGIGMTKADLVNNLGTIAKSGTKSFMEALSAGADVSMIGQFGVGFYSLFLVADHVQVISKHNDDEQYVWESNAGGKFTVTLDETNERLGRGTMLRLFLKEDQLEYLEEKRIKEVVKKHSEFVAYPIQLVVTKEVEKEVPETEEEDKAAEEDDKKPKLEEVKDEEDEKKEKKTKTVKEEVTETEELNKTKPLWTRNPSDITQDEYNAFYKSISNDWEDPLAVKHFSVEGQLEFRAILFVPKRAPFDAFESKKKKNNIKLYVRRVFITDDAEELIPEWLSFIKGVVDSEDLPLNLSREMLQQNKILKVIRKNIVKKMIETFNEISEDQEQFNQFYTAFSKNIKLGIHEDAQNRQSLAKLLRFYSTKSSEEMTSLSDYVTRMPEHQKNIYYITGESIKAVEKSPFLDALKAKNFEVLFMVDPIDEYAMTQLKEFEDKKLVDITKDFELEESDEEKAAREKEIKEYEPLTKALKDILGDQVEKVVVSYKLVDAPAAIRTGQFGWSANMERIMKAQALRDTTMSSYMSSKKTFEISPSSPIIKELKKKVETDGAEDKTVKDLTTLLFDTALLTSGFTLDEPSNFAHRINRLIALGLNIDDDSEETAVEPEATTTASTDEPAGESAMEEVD

Cytochrome P450 1A2 = target: T4, Cytochrome P450 1A2 (Homo sapiens, UniProt P05177);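 also: PubChem cytochrome P450 panel assay, CYP1A2 panel member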
T4 sequence (P05177 whole entry): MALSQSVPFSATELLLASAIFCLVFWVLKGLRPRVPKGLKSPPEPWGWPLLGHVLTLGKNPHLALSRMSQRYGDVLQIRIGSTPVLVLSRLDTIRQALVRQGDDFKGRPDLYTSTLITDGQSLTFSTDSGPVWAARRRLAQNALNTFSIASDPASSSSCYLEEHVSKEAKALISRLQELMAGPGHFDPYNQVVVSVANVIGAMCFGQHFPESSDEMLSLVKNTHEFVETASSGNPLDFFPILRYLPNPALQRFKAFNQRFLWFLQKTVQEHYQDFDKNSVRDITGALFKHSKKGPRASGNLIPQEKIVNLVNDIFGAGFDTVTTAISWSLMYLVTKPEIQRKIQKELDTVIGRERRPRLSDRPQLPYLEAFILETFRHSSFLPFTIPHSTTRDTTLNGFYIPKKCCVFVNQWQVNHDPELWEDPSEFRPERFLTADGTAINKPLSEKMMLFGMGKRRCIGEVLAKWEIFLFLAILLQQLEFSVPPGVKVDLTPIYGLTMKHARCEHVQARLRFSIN

[15] = target: T5, Alkaline phosphatase, tissue-nonspecific isozyme (Homo sapiens, UniProt P05186); test: TNAP enzyme inhibition by screening hits, dose response, selectivity assay for mouse IAP inhibitor project, biochemical, human TNAP, uHTS hits (AID 488906); format: functional
T5 sequence (P05186 whole entry): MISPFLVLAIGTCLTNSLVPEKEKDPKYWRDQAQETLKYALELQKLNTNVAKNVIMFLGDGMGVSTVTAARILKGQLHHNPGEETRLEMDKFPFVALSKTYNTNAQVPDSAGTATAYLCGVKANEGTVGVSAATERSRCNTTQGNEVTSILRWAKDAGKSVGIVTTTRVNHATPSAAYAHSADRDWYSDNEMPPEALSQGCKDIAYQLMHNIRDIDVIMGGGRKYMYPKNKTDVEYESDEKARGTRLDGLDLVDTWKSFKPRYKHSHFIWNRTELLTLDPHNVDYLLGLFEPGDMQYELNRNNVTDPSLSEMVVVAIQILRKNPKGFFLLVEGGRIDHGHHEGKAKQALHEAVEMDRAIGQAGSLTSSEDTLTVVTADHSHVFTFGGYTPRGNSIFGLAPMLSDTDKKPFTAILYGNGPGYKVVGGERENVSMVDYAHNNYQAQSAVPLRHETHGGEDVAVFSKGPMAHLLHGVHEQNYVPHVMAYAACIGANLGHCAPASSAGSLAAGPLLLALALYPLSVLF

[16] = target: T6, Rac GTPase-activating protein 1 (Homo sapiens, UniProt Q9H0H5); test: blockers of MgcRacGAP-driven Rac1 GTP hydrolysis – biochemical, ADP Hunter fluorescence, primary and confirmatory, confirmation (AID 624330); format: functional
T6 sequence (Q9H0H5 whole entry): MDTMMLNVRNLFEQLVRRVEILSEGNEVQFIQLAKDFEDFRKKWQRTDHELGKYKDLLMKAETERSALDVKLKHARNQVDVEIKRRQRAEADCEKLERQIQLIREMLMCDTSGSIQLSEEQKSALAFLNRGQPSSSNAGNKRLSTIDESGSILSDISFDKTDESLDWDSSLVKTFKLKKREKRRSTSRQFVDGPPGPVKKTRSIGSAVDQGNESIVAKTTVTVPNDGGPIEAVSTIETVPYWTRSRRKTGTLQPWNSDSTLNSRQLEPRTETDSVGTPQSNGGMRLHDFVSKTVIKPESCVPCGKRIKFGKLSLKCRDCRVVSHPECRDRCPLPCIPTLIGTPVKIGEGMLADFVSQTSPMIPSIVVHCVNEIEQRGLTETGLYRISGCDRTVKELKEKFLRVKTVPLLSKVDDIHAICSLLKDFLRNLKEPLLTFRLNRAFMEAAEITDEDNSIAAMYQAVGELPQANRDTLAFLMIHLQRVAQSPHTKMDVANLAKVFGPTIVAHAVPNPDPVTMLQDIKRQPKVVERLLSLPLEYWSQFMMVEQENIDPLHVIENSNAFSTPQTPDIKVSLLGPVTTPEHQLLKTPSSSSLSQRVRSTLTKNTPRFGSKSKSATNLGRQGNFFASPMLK

[17] = target: Intestinal-type alkaline phosphatase (Homo sapiens, UniProt P09923); test: inhibition of human intestinal alkaline phosphatase – biochemical, dose response (AID 488876); format: functional
Intestinal-type alkaline phosphatase (Homo sapiens, UniProt P09923), sequence (P09923 whole entry): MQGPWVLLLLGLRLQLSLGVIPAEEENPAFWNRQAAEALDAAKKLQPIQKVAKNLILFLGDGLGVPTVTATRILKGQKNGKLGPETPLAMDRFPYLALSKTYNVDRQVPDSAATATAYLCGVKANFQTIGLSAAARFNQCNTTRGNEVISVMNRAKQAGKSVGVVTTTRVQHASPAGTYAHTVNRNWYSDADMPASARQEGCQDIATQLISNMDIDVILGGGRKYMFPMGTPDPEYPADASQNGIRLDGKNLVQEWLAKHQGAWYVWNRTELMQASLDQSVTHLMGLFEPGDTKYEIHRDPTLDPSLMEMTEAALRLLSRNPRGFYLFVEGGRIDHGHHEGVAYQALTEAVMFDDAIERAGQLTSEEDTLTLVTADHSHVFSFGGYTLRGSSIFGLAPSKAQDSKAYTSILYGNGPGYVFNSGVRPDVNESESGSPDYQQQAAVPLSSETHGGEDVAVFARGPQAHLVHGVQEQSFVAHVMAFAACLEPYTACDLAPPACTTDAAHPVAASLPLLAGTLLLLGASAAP

[18] = target: Intestinal-type alkaline phosphatase (Mus musculus, UniProt P24822); test: PubChem AID 488785; format: functional
Intestinal-type alkaline phosphatase (Mus musculus, UniProt P24822), sequence (P24822 whole entry): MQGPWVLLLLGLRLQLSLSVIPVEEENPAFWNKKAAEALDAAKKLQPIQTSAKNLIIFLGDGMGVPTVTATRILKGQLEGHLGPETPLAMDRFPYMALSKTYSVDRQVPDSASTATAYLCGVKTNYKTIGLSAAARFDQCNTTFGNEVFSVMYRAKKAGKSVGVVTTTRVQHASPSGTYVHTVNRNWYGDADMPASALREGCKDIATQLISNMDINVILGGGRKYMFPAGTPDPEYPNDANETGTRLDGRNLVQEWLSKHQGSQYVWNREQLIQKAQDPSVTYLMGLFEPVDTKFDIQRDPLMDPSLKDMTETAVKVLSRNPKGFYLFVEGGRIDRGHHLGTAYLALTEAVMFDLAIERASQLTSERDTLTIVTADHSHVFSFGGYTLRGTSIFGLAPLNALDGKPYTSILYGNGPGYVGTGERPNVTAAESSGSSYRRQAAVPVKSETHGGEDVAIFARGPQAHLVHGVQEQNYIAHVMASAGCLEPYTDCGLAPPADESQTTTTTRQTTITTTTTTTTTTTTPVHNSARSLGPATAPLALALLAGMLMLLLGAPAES

H4 = test: Luminescence Cell-Based Dose Response HTS to Identify Activators of 5'UTR Stem-Loop Driven Prion Protein mRNA Translation in H4 Neuroglioblastoma Cells. [Related pubchem assays: 1829 (Project Summary), 1814 (Primary HTS)]; format: functional; conditions: Homo sapiens
Large T antigen = Large T antigen (Simian virus 40, UniProt P03070); format: functional, Betapolyomavirus macacae;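 also: Confirmatory-stage PubChem screen for compounds that inhibit SV40 T antigen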
Large T antigen, sequence (P03070 whole entry): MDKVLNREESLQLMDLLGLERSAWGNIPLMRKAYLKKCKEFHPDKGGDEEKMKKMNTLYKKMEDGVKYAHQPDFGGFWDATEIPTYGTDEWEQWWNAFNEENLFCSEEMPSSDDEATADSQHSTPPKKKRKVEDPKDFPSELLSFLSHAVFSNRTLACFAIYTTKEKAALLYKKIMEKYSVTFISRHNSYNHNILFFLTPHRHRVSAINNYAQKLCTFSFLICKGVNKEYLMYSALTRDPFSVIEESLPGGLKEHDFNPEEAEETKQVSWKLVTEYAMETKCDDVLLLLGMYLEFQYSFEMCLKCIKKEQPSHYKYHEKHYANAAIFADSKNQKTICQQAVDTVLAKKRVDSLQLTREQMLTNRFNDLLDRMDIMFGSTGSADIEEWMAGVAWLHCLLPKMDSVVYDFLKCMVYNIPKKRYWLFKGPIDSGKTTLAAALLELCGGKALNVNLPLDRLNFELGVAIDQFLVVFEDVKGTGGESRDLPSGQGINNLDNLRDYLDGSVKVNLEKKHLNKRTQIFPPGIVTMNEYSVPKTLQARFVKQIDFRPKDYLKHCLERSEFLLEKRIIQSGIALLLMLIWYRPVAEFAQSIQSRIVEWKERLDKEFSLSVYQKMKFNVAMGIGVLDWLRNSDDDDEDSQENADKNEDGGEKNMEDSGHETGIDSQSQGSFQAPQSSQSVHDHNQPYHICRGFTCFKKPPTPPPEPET

[19] = decrease of insulin promoter-GFP reporter – imaging, high-content screening, mouse beta cells (AID 1628); format: functional; conditions: MIN6
[20] = viability loss in THP-1 monocytes – THP-1 cells, cytotoxicity control for Vif-APOBEC3G degradation inhibitor project, dose response (AID 1117359); format: functional; conditions: THP-1
Protein Tat = Protein Tat (Human immunodeficiency virus type 1 group M subtype B (isolate HXB2)(HIV-1), UniProt P04608); format: functional;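 also: tat binding to TAR RNA read out by fluorescence polarization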
Protein Tat, sequence (P04608 whole entry): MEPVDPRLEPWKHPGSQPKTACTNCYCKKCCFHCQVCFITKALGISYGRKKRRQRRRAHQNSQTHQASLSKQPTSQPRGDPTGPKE

[21] = MIN6 cell viability loss – mouse insulinoma, cytotoxicity control, dose response (AID 2122); format: functional;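 also: confirmatory high-throughput counterscreen run to flag cytotoxic compounds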

Cc1ccc(/C=C/C(=O)c2ccccc(=O)c2O)cc1C
EC50 [1]: 5.05 µM (active)
EC50 (Streptococcus): 11.5 µM (active)
IC50 (NS3): 2.63 µM (active)
AC50 [2]: 4.22 µM (active)
EC50 [3]: 0.851 µM (active)
EC50 (Streptokinase A): > 150 µM (not active)
EC50 [4]: 1.83 µM (active)
EC50 [5]: 5.55 µM (active)
EC50 [6]: 12.9 µM (active)
EC50 [7]: 17.5 µM (active)
EC50 (BJ [8]): 23.7 µM (active)
EC50 [9]: 40 µM (active)
EC50 (BJ [10]): 24.9 µM (active)
EC50 [11]: 77.7 µM (active)
EC50 [12]: > 160 µM (inconclusive)
EC50 (BJ [13]): > 150 µM (not active)
EC50 [14]: 2.09 µM (active)

Nc1ncnc2c1ncn2[C@H]1O[C@@H](C(=O)OCCO)[C@@H](O)[C@H]1O
AC50 (Cytochrome P450 1A2): inconclusive

C/N=c1\scc(-c2ccco2)n1/N=C/c1ccc(O)c(O)c1
IC50 [15]: 29.7 µM (active)
IC50 [16]: 30.3 µM (active)
IC50 [17]: 13.4 µM (active)
IC50 [18]: 1.7 µM (active)
EC50 (H4): 70.2 µM (active)
IC50 (Large T antigen): 25.5 µM (active)
IC50 [19]: 6.81 µM (active)
CC50 [20]: 9.16 µM (active)
IC50 (Protein Tat): > 100 µM (active)
IC50 [21]: 3.56 µM (active)

From ChEMBL document CHEMBL1201862, “PubChem BioAssay data set” (2004)
